Data: paper PMC4072668, “Mass Spectrometric Detection and Characterization of Atypical Membrane-Bound Zinc-Sensitive Phosphatases Modulating GABAA Receptors” (PLoS ONE, 2014)
Where two headings read alike, the source gives them in different places. Non-standard residues stand in square brackets, D forms with d. No end group written: not given here. pT = C[C@@H](OP(=O)(O)O)[C@H](N)C(=O)O; pS = N[C@@H](COP(=O)(O)O)C(=O)O

Columns and labels:
[1] = tested on: membrane-bound phosphatase activities of washed cortical membrane; experiment: LC-MS/MS phosphatase assay with effectors, N-terminal phosphopeptide pI2α1N-P as substrate; type: biochemical; details: substrate pI2α1N-P; for IC50: 1 mM Mg2+, 30°C, 10 min, read-out: IC50
Protocol: (§1) Phosphatasic activity of bovine, rat and human washed cortical membranes was measured by using synthetic phosphopeptides as substrates. Reactions were performed in presence of 50 µg/ml (total proteins) of washed cortical membrane, 10 mM Hepes-Tris pH 7.4 and 1 mM MgCl2. Enzymatic reactions were initiated by adding 10 µM of phosphopeptide incubated for 10 min at 30°C and stopped by adding ice-cold acetic acid at a final concentration of 10% (w/v). Following a 800 g centrifugation during 10 min at 4°C, the supernatants were analyzed by LC-MS/MS. […] For these reasons, and to avoid micro-capillary column obstruction we have preferentially used the micro-LC column to characterize the pharmacological profile of phosphatasic activities.
(§2) Quantification of appearance of the native peptide and disappearance of the phosphopeptide in different conditions was performed using the calibration curve plotted using the Xcalibur software (P/N 64018-XCALI version 1.3). The calibration curve and linear regression were constructed using a series of standards, native and phosphorylated equimolar mixture, N- or C-terminal peptides at different concentrations 0.5, 1, 2, 5 and 10 µM (n = 2) in 10 mM Hepes pH 7.4, 1 mM Mg^2+ and 10% acetic acid, which was the same milieu condition as in the phosphatase assay after stopping reactions. The linear regression represents peak area of MS/MS chromatogram spectra depending on the peptide concentration (Figure S1).
(§3) Different effectors were tested by addition to the incubation medium at variable concentration: the dicationic ions Mg^2+, Ca^2+, Zn^2+ were used as chloride, the polycation spermine as hydrochloride, the anion F^− as sodium fluoride (NaF), and the inhibitors of some known phosphatases okadaic acid and the two (+/−) enantiomers of p–bromotetramisole oxalate (p-Br-t). For the inhibitory effects, relative 50% inhibition concentration (IC50) values were either determined graphically with a log-scale for the concentration axis or by the ‘log (inhibitor) vs. response’ nonlinear fit of Prism 5 software (GraphPad), considering activity in the absence of inhibitor as 100%.
Figure 4 Effects of various inhibitors on the membrane-bound phosphatase activities. […] Incubations were performed at 30°C during 10 min. The activities are expressed as a percentage of that of control samples without inhibitors. Inhibition profiles of PPase activities by okadaic acid were performed using N-terminal phosphopeptide (A) or C-terminal phosphopeptide (B) as substrate. The data points are means ± SEM of 3 experiments. The red arrows indicate the different IC50. […] Data points are the average ± SEM of duplicate assays. (D) Effect of Ca^2+ ions, fluoride (F^−) and spermine (SPM^4+) on PPase activity using N-terminal phosphopeptide as substrate.

[2] = tested on: membrane-bound phosphatase activities of washed cortical membranes; experiment: Enzyme kinetics of membrane-bound phosphatase activities with phosphopeptide substrates; type: biochemical; details: for Km / Vmax: phosphopeptide as substrate, 50 µg/ml membrane proteins, 30°C, 10 min, Michaelis-Menten fit
Protocol: Phosphatasic activity of bovine, rat and human washed cortical membranes was measured by using synthetic phosphopeptides as substrates. Reactions were performed in presence of 50 µg/ml (total proteins) of washed cortical membrane, 10 mM Hepes-Tris pH 7.4 and 1 mM MgCl2. Enzymatic reactions were initiated by adding 10 µM of phosphopeptide incubated for 10 min at 30°C and stopped by adding ice-cold acetic acid at a final concentration of 10% (w/v). Following a 800 g centrifugation during 10 min at 4°C, the supernatants were analyzed by LC-MS/MS. This centrifugation step was critical to remove membrane suspension that interferes with nano-LC and MS analysis. For these reasons, and to avoid micro-capillary column obstruction we have preferentially used the micro-LC column to characterize the pharmacological profile of phosphatasic activities.
The best conditions of incubation time and total protein concentration of washed cortical membranes were determined for assaying phosphatase activity with 10 µM of pI2α1 phosphopeptide. Protein concentration varied from 1 to 300 µg/ml and incubation time from 0.25 to 30 min, at fixed temperature of 30°C as in previous studies. Initial velocity of the enzymatic reaction was determined by linear regression (slope value). The optimal conditions were obtained with 50 µg/ml total membrane protein concentration and 10 min incubation time. The effects of the substrate effects were measured by varying the pI2α1N-P and pI2α1C-P concentrations between 3 and 75 µM. Saturation plots were generated via non-linear fit to the Michaelis-Menten equation. The affinity constant (Km) and maximum velocity (Vmax) were evaluated from this curve fitting using the Prism 5 computer program (GraphPad). Double-reciprocal plots with the Lineweaver-Burk equation were also drawn by linear fits using the same software.
Figure 2 LC-MS/MS detection and kinetics analysis of GABAAR α1-subunit phosphatase activities. (A) Dose-dependency at various protein concentrations; (B) time course of phosphatase activities using 50 µg/ml of total proteins of washed cortical membranes from bovine brain and (C) from human epileptic tissue. The N-terminal phosphopeptide (pI2α1N-P) used as substrate at 10 µM was incubated during 10 min at 30°C in 10 mM Hepes (pH 7.4) in the presence of 1 mM Mg^2+. The enzymatic reactions were stopped with 10% acetic acid and the samples were analyzed by LC-MS/MS as in figure 1E, F. The dephosphorylation rate was quantified by measuring simultaneously the quantity of the produced native peptide (pI2α1N) and of the remaining phosphorylated substrate (pI2α1N-P). Error bars represent SEM of two experiments. Kinetic analysis of GABAAR α1-subunit phosphatase activities was investigated using N-terminal (pI2α1N-P) and C-terminal (pI2α1C-P) phosphopeptides. All experiments were carried out with 50 µg/ml membrane proteins concentration, incubated at 30°C during 10 min, in presence of different concentrations of substrates. (D) Saturation plot of the initial velocity Vi versus [pI2α1N-P] and Lineweaver-Burk plots of 1/V versus 1/[pI2α1N-P] […] (E) Saturation plot of Vi versus [pI2α1C-P] and Lineweaver-Burk plot of 1/V versus 1/[pI2α1C-P] (inset). The data points are means ± SEM of 3 experiments.

[3] = tested on: GABAA receptor currents in pyramidal neurons; design: method as in PMID 15342727; details: cited from earlier work
[4] = tested on: membrane-bound phosphatase dephosphorylating GABAAR; design: method as in PMID 10762086; details: cited from earlier work
[5] = tested on: membrane-bound phosphatase activities of rat washed cortical membrane; experiment: LC-MS/MS phosphatase assay, Zn2+ profile, N-terminal phosphopeptide pI2α1N-P as substrate; type: biochemical; details: for IC50: substrate pI2α1N-P 10 µM, 1 mM Mg2+, 30°C, 10 min, two-step fit
Protocol: as §1, §2, §3
Assays were performed in presence of rat washed cortical membrane at 50 µg/ml of total protein concentration, with increasing amounts of Zn^2+ ions in 10 mM Hepes buffer pH 7.4 with 1 mM Mg^2+ in presence of. Incubations were performed at 30°C during 10 min. The activities are expressed as a percentage of that of control samples. […] (H) PPase activity at very low Zn^2+ concentrations (1 pM–200 nM). The IC50 values are mentioned with their 95% confidence intervals and calculated from nonlinear regression curve fits using GraphPad Prism 5.

[6] = tested on: membrane-bound phosphatase activities of rat washed cortical membrane; experiment: LC-MS/MS phosphatase assay, Zn2+ profile, C-terminal phosphopeptide pI2α1C-P as substrate; type: biochemical; details: for IC50: substrate pI2α1C-P 10 µM, 1 mM Mg2+, 30°C, 10 min, two-step fit
Protocol: as §1, §2
Different effectors were tested by addition to the incubation medium at variable concentration: the dicationic ions Mg^2+, Ca^2+, Zn^2+ were used as chloride, the polycation spermine as hydrochloride, the anion F^− as sodium fluoride (NaF), and the inhibitors of some known phosphatases okadaic acid and the two (+/−) enantiomers of p–bromotetramisole oxalate (p-Br-t). […]
Assays were performed in presence of rat washed cortical membrane at 50 µg/ml of total protein concentration, with increasing amounts of Zn^2+ ions in 10 mM Hepes buffer pH 7.4 with 1 mM Mg^2+ in presence of. […] The activities are expressed as a percentage of that of control samples. […]

alkaline phosphatase = tested on: alkaline phosphatase; design: method as in PMID 10898722; details: cited from earlier work
[7] = read-out: IC50 (H), high affinity
[8] = read-out: IC50 (L), low affinity

[F-].[Na+] [fluoride (F^−), sodium fluoride]
inhibition of phosphatase activities ([1]; 1 mM): 45% | inhibition of phosphatase activities ([1]; 10 mM): ~90% | IC50 ([1]; listed as Sodium fluoride): < 2000 µM | IC50 [1]: ~2000 µM

EPKKTFNSV[pS]KIDR [pI2α1C-P]
reduction in catalytic efficiency (Vmax/Km) compared to the phosphothreonine peptide PI2α1N-P [2]: eightfold reduction | Km [2]: 116 ± 20 µM | Vmax [2]: 1290±150 pM.min^−1.ml^−1

[Na+].[Na+].[Na+].[O]=[V]([O-])([O-])[O-] [sodium orthovanadate]
effect on rundown of GABAA currents [3]: reduced rundown | inhibition of membrane phosphatases [4]: inhibits

[Cl-].[Cl-].[Zn+2] [Zn^2+, Zinc chloride]
effect on phosphatasic activities at low concentrations ([5]; 1 pM–200 nM Zn2+, substrate pI2α1N-P): several activations | inhibition of phosphatase activities ([5]; 1 mM Zn2+, substrate pI2α1N-P): completely inhibited | IC50 [5, 7]: 1.7 µM | IC50 [5, 8]: 48 µM | inhibition of phosphatase activities ([6]; 1 mM Zn2+, substrate pI2α1C-P): completely inhibited | IC50 [6, 7]: 0.6 µM | IC50 [6, 8]: 15 µM | inhibition of membrane-bound phosphatase activity ([4]; concentrations between 0.1 µM-1 mM): inhibited | inhibition of GABAAR dephosphorylation ([4]; washed brain membranes, autoradiographic method): complete inhibition

[Cl-].[Cl-].[Mg+2] [Mg^2+, MgCl2]
effect of increasing concentration on phosphatase activities ([1]; 1 µM to 1 mM, data not shown): moderate but not linear increase

Brc1ccc(C2CN3CCSC3=N2)cc1.O=C(O)C(=O)O (single isomer, unassigned; (+)) [(+)-p--Br--t, (+)-p-bromotetramisole oxalate]
inhibition of membrane phosphatase activities ([1]; 1 mM): completely inhibited | IC50 [1]: 100 µM | inhibition of alkaline phosphatase (alkaline phosphatase): completely insensitive

NCCCNCCCCNCCCN [Spermine, spermine]
inhibition of phosphatase activities ([1]; 1 mM): 10% | inhibition of phosphatase activities ([1]; 10 mM): 20% | IC50 [1]: > 10000 µM

[Ca+2].[Cl-].[Cl-] [Ca^2+, CaCl2]
inhibition of phosphatase activities ([1]; 1 mM): 30% | inhibition of phosphatase activities ([1]; 10 mM): less than 60% | IC50 [1]: ~5000 µM

Brc1ccc(C2CN3CCSC3=N2)cc1.O=C(O)C(=O)O (single isomer, unassigned; (-)) [(−)-p--Br--t, (−)-p-bromotetramisole oxalate]
inhibition of membrane phosphatase activities ([1]; 1 mM): completely inhibited | IC50 [1]: 300 µM | inhibition of alkaline phosphatase (alkaline phosphatase): potent alkaline phosphatase inhibitor

NYF[pT]KRGYAWDGK [pI2α1N-P]
Km [2]: 25.4 ± 3.3 µM | Vmax [2]: 2320±130 pM.min^−1.ml^−1
